pIC50: −log10 of the molar value. In brackets after ≈: the same amount, converted by molar mass.
Key:
[1] = system: G. lamblia GS trophozoites; assay: Trophozoite viability MLC determination; assay type: cell-based, Giardia lamblia
Procedure: The inhibition of metabolism enables the organism to resume proliferation once treatment is completed. To discriminate between the lethality of the promising compounds and the induction of metabolic inactivity by the promising compounds, the minimum lethal concentration (MLC) values were determined by treating the trophozoites with the test compounds for 3 days and transferring the resulting cultures to medium lacking the compounds for 3 days of proliferation. This assay was described previously for G. lamblia ([18]) and was adapted to E. histolytica in the current study.
Trophozoites of G. lamblia isolates WB and GS were grown anaerobically in borosilicate glass screw-cap culture tubes (Fisher Scientific) at pH 7.0 in Keister’s modified TYI-S-33 medium (ATCC). The medium was supplemented with 10% heat-inactivated bovine serum (Sigma-Aldrich) and 0.05% bovine bile (Sigma-Aldrich). To attain low-oxygen-tension conditions, the tubes were filled to 85% to 90% of their total volume capacity and incubated without shaking at 37°C. Subcultures (2 × 10^5 trophozoites per tube) were made three times a week. Detachment of trophozoites for inoculation was achieved by chilling the cultures on ice for 20 min. Culturing and detachment of metronidazole-resistant G. lamblia assemblage A 713M3 and assemblage B 1279-M1 trophozoites followed the same protocol, except that the growth medium was supplemented with metronidazole, with the concentration gradually being increased to 10 μM.
Compounds were prepared by 2-fold serial dilutions in growth medium containing 0.5% DMSO (diluted from a starting concentration of 1 μM to 12 concentrations for all compounds except metronidazole, fumagillol, and TNP-470, which were diluted from 100 μM), and 100 μl/well was transferred in duplicate to the 96-well culture plate. Ten microliters of G. lamblia trophozoites was plated at a density of 10,000 cells/well. The plates were incubated under anaerobic condition in a BD GasPak EZ container system (BD Diagnostics) at 37°C for 72 h and surveyed visually under a microscope to check trophozoite survival, mobility, and attachment. […] The tubes were incubated under anaerobic condition for 3 days at 37°C and checked under a microscope. The MLC value was the concentration in the tube with the lowest compound concentration without any live organism.

[2] = Plasma pharmacokinetics in mice; assay type: in vivo, C57BL/6 female mice
Procedure: The mean plasma concentration-time profiles for intravenous (i.v.) and per os (p.o.) administration in C57BL/6 female mice are shown in Fig. 6A. […] In contrast, at the earliest time point (15 min) following oral administration of a 6.6-mg/kg bolus, the plasma concentration reached a maximum of ∼92 ng/ml and then decreased gradually and remained detectable for 8 h.
Plasma intravenous (i.v.) and per os (p.o.) pharmacokinetic studies were performed in C57BL/6 female mice, using two groups of three mice each. […] The second group of mice received a 6.6-mg/kg dose orally; this dose matched the therapeutic dose that cured giardiasis with no remaining proliferating trophozoites. Blood samples were withdrawn at 5, 15, and 30 min and 1, 2, 4, 8, and 24 h after administration for the i.v. treated mouse group and at the same time intervals but beginning at 15 min for the p.o. treated mouse group. The samples were extracted with 60% water-diluted acetonitrile and were frozen at −20°C until analysis.
Blank and test compound-containing samples were thawed, vortexed to ensure complete mixing of the contents, and centrifuged at 4,000 rpm at 20°C for 10 min. The supernatants were transferred into autoinjector vials. The vials were loaded, and 30-μl sample volumes were injected onto an API 4000 LC-MS/MS system. The Agilent XDB C18 column was used for the liquid chromatographic step at a flow rate of 0.6 ml/min. The mass spectrometer was operated in the electrospray ionization-positive mode. Curcumin served as an internal standard. The chromatograms were evaluated using Analyst (version 1.6.3) software.

[3] = system: G. lamblia WB trophozoites; design: method as in PMID 21078930, PMID 25267663; settings: read-out: IC50 against assemblage A WB strain; cited from earlier work
[4] = system: G. lamblia GS trophozoites; design: method as in PMID 21078930, PMID 25267663; settings: read-out: IC50 against assemblage B GS strain; cited from earlier work
[5] = design: method as in earlier work; settings: degraded from 98% purity; Sanofi; cited from earlier work
[6] = system: G. lamblia WB trophozoites; design: method as in PMID 25267663; settings: proliferation assay; cited from earlier work
[7] = Accelerated temperature/humidity degradation test; assay type: physicochemical; settings: day 28, 37°C; for Mean ± SE degradation at 4 wk and 37°C, 75% humidity: 75% relative humidity; for Mean ± SE degradation at 4 wk and 37°C, uncontrolled humidity: uncontrolled relative humidity
Procedure: Accelerated temperature tests were performed at 37°C and under 75% relative humidity or laboratory uncontrolled relative humidity, comparing compounds 3 and 9 to fumagillin. Sanofi reported previously that fumagillin degraded from 98% to 85% purity when stored at 40°C for 2 weeks at ambient humidity ([42]).
For accelerated temperature degradation tests at 75% relative humidity and at laboratory uncontrolled relative humidity, fumagillin and compounds 3 and 9 were incubated at 37°C under either controlled or uncontrolled humidity, and the samples were analyzed by HPLC every week for 4 weeks. Measurements were made in duplicate. Area-under-the-curve values were calculated to derive the percentage of compound remaining. For pH degradation, the compounds were dissolved in DMSO and mixed with pH 3.0 buffer. The samples were incubated at 25°C for up to 48 h. Samples were analyzed by HPLC every 2 h for the first 8 h and then after 24 and 48 h.

COC1C(OC(=O)NC(=O)CN2CCOCC2)CCC2(CO2)C1C1(C)OC1CC=C(C)C (stereo not drawn) [Compound 3]
fold improved MLCs compared with the MLC of fumagillin [1]: ~100 fold

CO[C@@H]1[C@H](OC(=O)Nc2ccc(C(=O)O)cc2)CC[C@]2(CO2)[C@H]1[C@@]1(C)O[C@@H]1CC=C(C)C [Compound 9, 4-(((((3R,4S,5S,6R)-5-methoxy-4-((2R,3R)-2-methyl-3-(3-methylbut-2-en-1-yl)oxiran-2-yl)-1-oxaspiro[2.5]octan-6-yl)oxy)carbonyl)amino)benzoic acid]
time plasma concentration remained detectable ([2]; 6.6 mg/kg oral bolus): 8 h
maximum plasma concentration ([2]; 6.6 mg/kg oral bolus, C57BL/6 female mice): ~92 ng/mL
time point of maximum plasma concentration ([2]; 6.6 mg/kg oral bolus, earliest time point): 15 min
half-life ([2]; mouse, iv, 2 mg/kg i.v., plasma, C57BL/6 female mice, read-out: calculated half-life): 7.2 min
concentration at 5 min ([2]; mouse, plasma, intravenous, 2 mg/kg i.v. bolus, C57BL/6 female mice, read-out: plasma concentration at the 5-min time point): ~136 ng/mL
concentration at 1 h ([2]; mouse, plasma, intravenous, 2 mg/kg i.v. bolus, C57BL/6 female mice, read-out: plasma concentration by 1 h after dosing (below limit of quantification)): < 5 ng/mL

CO[C@@H]1[C@H](OC(=O)/C=C/C=C/C=C/C=C/C(=O)O)CC[C@]2(CO2)[C@H]1[C@@]1(C)O[C@@H]1CC=C(C)C [Fumagillin, reference compound]
pIC50 [3]: 8.00
pIC50 [4]: 8.70
purity after storage at 40°C for 2 weeks at ambient humidity [5]: 85%
MLC, WB strain [6]: 0.7 µM (≈ 0.321 µg/mL)
Mean ± SE degradation at 4 wk and 37°C, 75% humidity [7]: 30.37 ± 1.12%
Mean ± SE degradation at 4 wk and 37°C, 75% humidity ([7]; listed as fumagillin): 30.37%
Mean ± SE degradation at 4 wk and 37°C, uncontrolled humidity [7]: 20.22 ± 3.90%
Mean ± SE degradation at 4 wk and 37°C, uncontrolled humidity ([7]; listed as fumagillin): 20.22%
